Active and inactive are the calls of the source. Cut-off read from the data, not from the text of the source, for most assays here: actives have a measured IC50 and inactives only a lower limit.
What was measured:
Type in all cases: functional
[1] = target: T1, Sentrin-specific protease 7 (Homo sapiens, UniProt Q9BQF6);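 note: Luminescence-based dose-response confirmation of ultra-high-throughput screening hits, measuring inhibition of SENP7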
T1 sequence (Q9BQF6 whole entry): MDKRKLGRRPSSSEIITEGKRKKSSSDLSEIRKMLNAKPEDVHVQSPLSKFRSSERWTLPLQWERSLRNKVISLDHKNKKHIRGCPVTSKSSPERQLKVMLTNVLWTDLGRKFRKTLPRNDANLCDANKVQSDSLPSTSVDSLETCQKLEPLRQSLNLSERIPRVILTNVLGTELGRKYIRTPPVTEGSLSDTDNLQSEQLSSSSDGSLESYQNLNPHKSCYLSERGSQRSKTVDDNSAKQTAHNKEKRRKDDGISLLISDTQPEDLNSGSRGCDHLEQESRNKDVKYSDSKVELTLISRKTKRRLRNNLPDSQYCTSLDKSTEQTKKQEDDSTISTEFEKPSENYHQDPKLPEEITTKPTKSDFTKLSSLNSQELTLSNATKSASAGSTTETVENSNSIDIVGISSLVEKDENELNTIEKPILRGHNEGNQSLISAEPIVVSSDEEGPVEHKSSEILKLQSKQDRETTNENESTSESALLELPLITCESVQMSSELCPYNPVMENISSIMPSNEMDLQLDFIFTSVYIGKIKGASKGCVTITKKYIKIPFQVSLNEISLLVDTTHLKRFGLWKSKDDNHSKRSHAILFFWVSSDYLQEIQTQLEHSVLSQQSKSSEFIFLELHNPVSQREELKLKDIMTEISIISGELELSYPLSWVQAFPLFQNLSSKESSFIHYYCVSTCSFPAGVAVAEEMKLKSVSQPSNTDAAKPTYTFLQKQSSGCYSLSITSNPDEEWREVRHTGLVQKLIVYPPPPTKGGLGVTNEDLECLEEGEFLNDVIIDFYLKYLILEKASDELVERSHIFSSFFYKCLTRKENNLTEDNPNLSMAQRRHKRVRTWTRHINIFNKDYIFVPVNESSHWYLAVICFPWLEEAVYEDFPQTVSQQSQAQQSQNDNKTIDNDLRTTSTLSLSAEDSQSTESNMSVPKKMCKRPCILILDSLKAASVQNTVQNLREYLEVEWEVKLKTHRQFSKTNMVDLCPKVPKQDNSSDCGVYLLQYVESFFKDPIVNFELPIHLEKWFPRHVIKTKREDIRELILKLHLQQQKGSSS

[2] = target: T2, Sentrin-specific protease 6 (Homo sapiens, UniProt Q9GZR1);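 note: Luminescence-based dose-response confirmatory assay of SENP6 inhibition, following up an ultra-high-throughput screen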
T2 sequence (Q9GZR1 whole entry): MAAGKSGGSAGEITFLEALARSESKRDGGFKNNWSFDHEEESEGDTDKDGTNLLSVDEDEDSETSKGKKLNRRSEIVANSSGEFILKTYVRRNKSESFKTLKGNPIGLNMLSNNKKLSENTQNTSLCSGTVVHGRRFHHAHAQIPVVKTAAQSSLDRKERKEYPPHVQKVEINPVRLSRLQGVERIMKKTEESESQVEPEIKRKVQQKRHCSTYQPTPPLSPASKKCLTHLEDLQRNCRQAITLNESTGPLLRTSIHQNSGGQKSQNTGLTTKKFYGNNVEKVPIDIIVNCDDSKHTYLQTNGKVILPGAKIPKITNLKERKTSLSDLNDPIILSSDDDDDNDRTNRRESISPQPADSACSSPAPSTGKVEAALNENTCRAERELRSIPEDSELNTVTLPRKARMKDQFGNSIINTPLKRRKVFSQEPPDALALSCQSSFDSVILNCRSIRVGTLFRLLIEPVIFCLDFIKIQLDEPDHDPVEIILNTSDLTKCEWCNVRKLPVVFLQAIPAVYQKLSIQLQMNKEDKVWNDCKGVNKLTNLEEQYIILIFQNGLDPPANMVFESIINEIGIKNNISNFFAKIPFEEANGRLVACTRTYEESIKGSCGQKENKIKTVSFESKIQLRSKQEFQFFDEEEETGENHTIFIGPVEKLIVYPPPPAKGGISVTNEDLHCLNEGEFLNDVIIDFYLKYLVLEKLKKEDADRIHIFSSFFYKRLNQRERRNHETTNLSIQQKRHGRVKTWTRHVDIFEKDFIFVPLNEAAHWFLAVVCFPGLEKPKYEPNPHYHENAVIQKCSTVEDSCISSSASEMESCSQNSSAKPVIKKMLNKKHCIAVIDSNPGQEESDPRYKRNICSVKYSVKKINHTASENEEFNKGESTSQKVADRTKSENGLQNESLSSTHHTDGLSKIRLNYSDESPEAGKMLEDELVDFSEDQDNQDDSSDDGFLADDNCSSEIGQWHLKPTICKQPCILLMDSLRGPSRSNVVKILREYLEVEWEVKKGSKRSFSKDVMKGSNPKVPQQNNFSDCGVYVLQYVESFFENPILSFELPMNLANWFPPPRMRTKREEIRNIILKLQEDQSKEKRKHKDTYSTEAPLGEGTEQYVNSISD

[3] = target: T3, Replicative DNA helicase DnaB (Mycobacterium tuberculosis, UniProt P9WMR3); assay: DnaB intein splicing inhibitors, dose response, biochemical, cell-free fluorescence (AID 449749)
T3 sequence (P9WMR3 whole entry): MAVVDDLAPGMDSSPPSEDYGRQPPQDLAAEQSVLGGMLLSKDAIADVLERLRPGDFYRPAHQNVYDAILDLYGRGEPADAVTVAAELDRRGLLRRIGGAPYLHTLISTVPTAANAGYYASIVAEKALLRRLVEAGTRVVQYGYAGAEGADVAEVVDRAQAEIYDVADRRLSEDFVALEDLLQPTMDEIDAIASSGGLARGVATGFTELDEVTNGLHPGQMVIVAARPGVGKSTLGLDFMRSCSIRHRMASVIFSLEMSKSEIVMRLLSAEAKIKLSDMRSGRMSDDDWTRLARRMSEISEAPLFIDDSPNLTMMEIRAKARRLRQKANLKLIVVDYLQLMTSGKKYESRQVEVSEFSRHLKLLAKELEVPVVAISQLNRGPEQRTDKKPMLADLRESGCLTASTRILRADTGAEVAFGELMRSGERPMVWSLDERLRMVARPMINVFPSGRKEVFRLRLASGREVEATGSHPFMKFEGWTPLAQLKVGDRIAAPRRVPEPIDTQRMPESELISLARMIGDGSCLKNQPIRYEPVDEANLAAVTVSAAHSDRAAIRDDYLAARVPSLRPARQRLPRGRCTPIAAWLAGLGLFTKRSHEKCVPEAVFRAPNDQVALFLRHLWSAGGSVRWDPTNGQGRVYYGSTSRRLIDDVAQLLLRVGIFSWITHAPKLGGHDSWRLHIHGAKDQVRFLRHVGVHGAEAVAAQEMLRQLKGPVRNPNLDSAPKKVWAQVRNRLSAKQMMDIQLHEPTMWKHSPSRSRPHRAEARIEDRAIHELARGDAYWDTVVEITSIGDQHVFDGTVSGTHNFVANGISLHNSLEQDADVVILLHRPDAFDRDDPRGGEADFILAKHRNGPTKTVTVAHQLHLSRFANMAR

Row | SMILES | IC50 [1] | IC50 [2] | AC50 [3]
1 | C=CCNC1=C(Cl)C(=O)c2ccccc2C1=O | 23.9 µM (active) | 9.07 µM (active) | 4.75 µM (active)
2 | CCOC(=O)C(C(=O)OCC)c1cc(Br)c2noc3c2c1C(=O)c1ccccc1-3 | – | – | 27.6 µM (active)
3 | CN(C)c1ccc(-c2nnc(-c3cccs3)o2)cc1 | 12.9 µM (active) | > 100 µM (inactive) | –

— ChEMBL document CHEMBL1201862, “PubChem BioAssay data set” (2004)
